In patent publication US9957271B2, “Substituted bicyclic aza-heterocycles and analogues as sirtuin modulators” (GlaxoSmithKline, LLC, priority 2012, dated 2018):

Legend:
SIRT1 [1] = target: T1, SIRT1 (Homo sapiens, UniProt Q96EB6); experiment: Trp mass spectrometry assay of SIRT1 activity; format: biochemical; conditions: for Emax: read-out: Trp % Fold Act
T1 sequence (Q96EB6 1-747): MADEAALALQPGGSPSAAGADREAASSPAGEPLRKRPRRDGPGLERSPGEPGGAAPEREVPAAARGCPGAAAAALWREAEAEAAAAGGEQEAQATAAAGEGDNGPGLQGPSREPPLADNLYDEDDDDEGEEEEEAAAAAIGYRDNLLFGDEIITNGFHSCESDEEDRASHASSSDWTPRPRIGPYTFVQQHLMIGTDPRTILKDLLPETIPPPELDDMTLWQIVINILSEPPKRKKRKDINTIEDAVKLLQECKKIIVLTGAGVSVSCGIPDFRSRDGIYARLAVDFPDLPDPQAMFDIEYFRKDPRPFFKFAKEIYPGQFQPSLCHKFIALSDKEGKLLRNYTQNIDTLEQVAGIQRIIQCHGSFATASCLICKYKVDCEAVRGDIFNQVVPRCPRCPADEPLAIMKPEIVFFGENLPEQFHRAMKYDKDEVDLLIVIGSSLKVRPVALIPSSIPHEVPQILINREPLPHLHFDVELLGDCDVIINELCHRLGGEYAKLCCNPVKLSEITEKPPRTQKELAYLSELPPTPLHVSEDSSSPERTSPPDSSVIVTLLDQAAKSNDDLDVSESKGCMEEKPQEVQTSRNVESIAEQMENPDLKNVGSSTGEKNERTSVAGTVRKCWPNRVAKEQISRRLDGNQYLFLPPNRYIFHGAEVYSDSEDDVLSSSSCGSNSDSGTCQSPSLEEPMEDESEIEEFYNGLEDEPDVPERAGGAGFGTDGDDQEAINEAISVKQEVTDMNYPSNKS
Procedure, shortened: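 His-tagged SIRT1 expressed in E. coli BL21(DE3), 10 nM, incubated 25 min at 25° C. with 0.5 μM Ac-RHKK(Ac)W-NH2 peptide and 120 μM βNAD+ in 50 mM HEPES pH 7.5, […], 1 mM DTT, 0.05% BSA; formic acid stop. OAADPR or deacetylated peptide measured by mass spectrometry; EC1.5 and percent maximum activation versus DMSO control.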

SIRT1 [2] = target: T1, SIRT1; experiment: TAMRA based mass spectrometry assay of SIRT1 activity; format: biochemical; conditions: for Emax: read-out: TAMRA % Fold Act
Procedure, shortened: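 Recombinant N-terminal His-tagged human SIRT1 (10 nM, E. coli) incubated 25 min at 25 °C with 0.5 μM 5TMR-labelled p53-derived acetyl-peptide and 120 μM βNAD+ in Tris-acetate pH 8 buffer with DTT and 0.05% BSA, compound at varying concentrations. Stopped with formic acid; deacetylated peptide or OAADPR measured by mass spectrometry relative to DMSO controls.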

[3] = Trp assay, concentration giving 150% activation of SIRT1
[4] = Trp assay, percent maximum fold activation
[5] = TAMRA assay, concentration giving 150% activation of SIRT1
[6] = TAMRA assay, percent maximum fold activation
[7] = concentration of test compound giving 150% activation of SIRT1, Trp peptide substrate
[8] = percent maximum fold activation of SIRT1, Trp peptide substrate
[9] = concentration of test compound giving 150% activation of SIRT1, TAMRA peptide substrate
[10] = percent maximum fold activation of SIRT1, TAMRA peptide substrate
[11] = Trp peptide substrate, concentration giving 150% activation of SIRT1
[12] = Trp peptide substrate, percent maximum fold activation
[13] = TAMRA peptide substrate, concentration giving 150% activation of SIRT1
[14] = TAMRA peptide substrate, percent maximum fold activation

Compound	Trp EC1.5 (μM) (SIRT1 [1]; [3])	Emax (SIRT1 [1]; [4]) [%]	TAMRA EC1.5 (μM) (SIRT1 [2]; [5])	Emax (SIRT1 [2]; [6]) [%]	also measured
Cc1cnc(NC(=O)c2c(C)nn3ccc(-c4ccccc4C(F)(F)F)nc23)cn1 [Compound 710]	A (EC1.5<1 μM)	≥ 350	A (EC1.5<1 μM)	≥ 350	
COc1nccc(NC(=O)c2cnn3ccc(-c4ccccc4OC(F)(F)F)nc23)n1 [Compound 797]	A (EC1.5<1 μM)	≥ 350	A (EC1.5<1 μM)	≥ 350	
O=C(Nc1ccncc1)c1cnc2ccc(-c3c(F)cccc3Cl)nn12 [Compound 161]					Trp EC1.5 (μM) (SIRT1 [1]; [7]): C (EC1.5>25 μM); Emax (SIRT1 [1]; [8]): < 350%; TAMRA EC1.5 (μM) (SIRT1 [2]; [9]): B (EC1.5 1-25 μM); Emax (SIRT1 [2]; [10]): < 350%
Cc1ncccc1NC(=O)c1cnn2ccc(-c3ccccc3OC(F)(F)F)nc12 [Compound 622]	A (EC1.5<1 μM)	≥ 350	B (EC1.5 1-25 μM)	< 350	
Cc1nn2ccc(-c3ccccc3C(F)(F)F)nc2c1NC(=O)c1ccncn1 [Compound 572]					Trp EC1.5 (SIRT1 [1]; [11]): C (EC1.5>25 μM); Emax (SIRT1 [1]; [12]): < 350%; TAMRA EC1.5 (SIRT1 [2]; [13]): C (EC1.5>25 μM); Emax (SIRT1 [2]; [14]): < 350%
O=C(Nc1cnn2ccc(-c3ccccc3C(F)(F)F)nc12)c1cnc(O)cn1 [Compound 828]	C (EC1.5>25 μM)	< 350	A (EC1.5<1 μM)	≥ 350	
O=C(Nc1ccccn1)c1cnc2ccc(-c3ccccc3OC(F)(F)F)nn12 [Compound 14]					Trp EC1.5 (μM) (SIRT1 [1]; [7]): B (EC1.5 1-25 μM); Emax (SIRT1 [1]; [8]): ≥ 350%; TAMRA EC1.5 (μM) (SIRT1 [2]; [9]): A (EC1.5<1 μM); Emax (SIRT1 [2]; [10]): ≥ 350%
O=C(Nc1cccnc1)c1cnc2ccc(-c3cccc(C(F)(F)F)c3)nn12 [Compound 2]					Trp EC1.5 (μM) (SIRT1 [1]; [7]): A (EC1.5<1 μM); Emax (SIRT1 [1]; [8]): ≥ 350%; TAMRA EC1.5 (μM) (SIRT1 [2]; [9]): B (EC1.5 1-25 μM); Emax (SIRT1 [2]; [10]): < 350%
COc1cccc(NC(=O)c2cnc3ccc(-c4ccccc4F)nn23)n1 [Compound 244]	A (EC1.5<1 μM)	< 350	B (EC1.5 1-25 μM)	< 350	
Cc1cc(C(=O)Nc2cnc3ccc(-c4ccccc4C(F)(F)F)nn23)nc(C)n1 [Compound 275]	B (EC1.5 1-25 μM)	< 350	A (EC1.5<1 μM)	≥ 350	
O=C(Nc1cnc2ccc(-c3ccccc3C(F)(F)F)nn12)c1cccnc1 [Compound 86]					Trp EC1.5 (μM) (SIRT1 [1]; [7]): C (EC1.5>25 μM); Emax (SIRT1 [1]; [8]): < 350%; TAMRA EC1.5 (μM) (SIRT1 [2]; [9]): C (EC1.5>25 μM); Emax (SIRT1 [2]; [10]): < 350%
Cc1cccc(NC(=O)c2c(C)nc3ccc(-c4cccc(OC[C@H](O)CO)c4)nn23)n1 [Compound 790]	A (EC1.5<1 μM)	≥ 350	A (EC1.5<1 μM)	≥ 350	
Cc1cncc(C(=O)Nc2cnc3ccc(-c4ccccc4C(F)(F)F)nn23)c1 [Compound 231]	B (EC1.5 1-25 μM)	< 350	B (EC1.5 1-25 μM)	≥ 350	
CCNc1cccc(NC(=O)c2cnc3ccc(-c4ccccc4F)nn23)n1 [Compound 327]	A (EC1.5<1 μM)	< 350	A (EC1.5<1 μM)	≥ 350	
Cc1cc(NC(=O)c2cnc3ccc(-c4ccccc4C(F)(F)F)nn23)cc(OCC(O)CO)n1 (stereo not shown) [Compound 406]					Trp EC1.5 (SIRT1 [1]; [11]): A (EC1.5<1 μM); Emax (SIRT1 [1]; [12]): ≥ 350%; TAMRA EC1.5 (SIRT1 [2]; [13]): A (EC1.5<1 μM); Emax (SIRT1 [2]; [14]): ≥ 350%
Cc1nc(C(=O)Nc2cnc3cc(C)c(-c4ccccc4C(F)(F)F)nn23)cs1 [Compound 433]					Trp EC1.5 (SIRT1 [1]; [11]): C (EC1.5>25 μM); Emax (SIRT1 [1]; [12]): < 350%; TAMRA EC1.5 (SIRT1 [2]; [13]): A (EC1.5<1 μM); Emax (SIRT1 [2]; [14]): ≥ 350%
O=C(Nc1cncc(OCC(O)CO)n1)c1cnc2ccc(-c3ccccc3C(F)(F)F)nn12 (stereo not shown) [Compound 213]	A (EC1.5<1 μM)	≥ 350	A (EC1.5<1 μM)	≥ 350	
Cc1nc2ccc(-c3ccccc3F)nn2c1C(=O)Nc1cccnn1 [Compound 706]		< 350		< 350	
Cc1nc2c(C)cc(-c3ccccc3OC(F)(F)F)nn2c1C(=O)Nc1cccc(N2CC3(COC3)C2)n1 [Compound 545]					Trp EC1.5 (SIRT1 [1]; [11]): A (EC1.5<1 μM); Emax (SIRT1 [1]; [12]): ≥ 350%; TAMRA EC1.5 (SIRT1 [2]; [13]): A (EC1.5<1 μM); Emax (SIRT1 [2]; [14]): ≥ 350%
CC(C)c1csc(C(=O)Nc2cnn3ccc(-c4ccccc4C(F)(F)F)nc23)n1 [Compound 808]	B (EC1.5 1-25 μM)	< 350	A (EC1.5<1 μM)	≥ 350	
CCOc1nccc(NC(=O)c2cnc3ccc(-c4ccccc4C(F)(F)F)nn23)n1 [Compound 600]	A (EC1.5<1 μM)	≥ 350	A (EC1.5<1 μM)	≥ 350	
N#Cc1ccccc1-c1ccc2ncc(NC(=O)c3cnccn3)n2n1 [Compound 329]	C (EC1.5>25 μM)	< 350	B (EC1.5 1-25 μM)	< 350	
Cc1c(-c2ccccc2C(F)(F)F)nn2c(C(=O)Nc3cccc(OC[C@H](O)CO)n3)cnc2c1C [Compound 387, (R)-N-(6-(2,3-dihydroxypropoxy)pyridin-2-yl)-7,8-dimethyl-6-(2-(trifluoromethyl)phenyl)imidazo[1,2-b]pyridazine-3-carboxamide]	A (EC1.5<1 μM)	≥ 350	A (EC1.5<1 μM)	≥ 350	
COc1cc(NC(=O)c2cnc3ccc(-c4ccccc4C(F)(F)F)nn23)ncn1 [Compound 197]	B (EC1.5 1-25 μM)	< 350	A (EC1.5<1 μM)	≥ 350	
Cc1cnc(C(=O)Nc2cnc3ccc(-c4ccccc4OC(F)(F)F)nn23)s1 [Compound 320]	B (EC1.5 1-25 μM)	< 350	A (EC1.5<1 μM)	≥ 350	
O=C(Nc1cccc(N2CCOCC2)n1)c1ncn2ccc(-c3ccccc3C(F)(F)F)nc12 [Compound 454]					Trp EC1.5 (SIRT1 [1]; [11]): A (EC1.5<1 μM); Emax (SIRT1 [1]; [12]): ≥ 350%; TAMRA EC1.5 (SIRT1 [2]; [13]): A (EC1.5<1 μM); Emax (SIRT1 [2]; [14]): ≥ 350%
Cc1cccc(-c2ccc3nc(C)c(C(=O)Nc4ccc(C)nn4)n3n2)c1 [Compound 692]	A (EC1.5<1 μM)	< 350	A (EC1.5<1 μM)	< 350	
